From patent US9040903B2, “Precursor selection using an artificial intelligence algorithm increases proteomic sample coverage and reproducibility” (Wisconsin Alumni Research Foundation, priority 2011, dated 2015)

Experiments:
[1] = system: mouse skeletal muscle myotubes; assay: Immunoblot of mitochondrial proteins after iron chelation of myotubes; type: cell-based
[2] = system: human embryonic stem cells (ESCs); assay: TMT 6-plex isobaric tag quantitation of human embryonic stem cells before and two days after BMP4 treatment (inSeq-triggered QuantMode scans); type: cell-based; settings: two days post treatment
Protocol: To assess this decision node, a sample comprising three biological replicates of human embryonic stem cells (ESCs) was analyzed pre- and two days-post bone morphogenetic protein 4 (BMP4) treatment (i.e., TMT 6-plex, three pre-treatment and three post BMP4 treatment cell populations). BMP4, a growth factor that induces context-dependent differentiation in pluripotent stem cells, is widely used to study differentiation to biologically relevant cell lineages such as mesoderm and endoderm. […] Here the ratio of change between control and treatment cell lines measured in one QM scan is large (5.86) but not significant (P=0.067, Student's t-test with Storey correction) (34). Note significance testing was accomplished by assessing variation within the three biological replicates of both treatment and control cell lines. The measured ratio remains relatively unchanged (5.22 and 5.43) as reporter tag signal from additional quantitation scans are added; however, the corresponding P-values decrease to 0.014 and 0.012 when two or three quantitation scans are summed. […] Ideally this log2 ratio would be zero, indicating perfect biological replication; however, when only one quantitation scan is employed this ratio severely deviates from zero with decreasing tag intensity. To improve overall data quality and to omit potentially erroneous measurements arbitrary reporter signal cutoffs (dashed vertical line in FIG. 16B) can be employed. These cutoffs eliminate many low-abundance peptides which often represent proteins of interest. Summation of additional quantitation scans increases the average reporter tag intensity, raising nearly all of the protein measurements above the intensity cutoff value (74, 9, and 4 proteins omitted using one, two, and three quantification scans, respectively).
Human embryonic stem cells (line H1) were maintained in feeder independent media as previously described (Chen et al). […]
TMT quantification was performed using TagQuant within COMPASS. […]

Molecule: CC(=O)N(O)CCCCCNC(=O)CCC(=O)N(O)CCCCCNC(=O)CCC(=O)N(O)CCCCCN [DFO, desferrioxamine]
- cell death ([1]; mouse myotube C2C12 cells, 100 μM): without causing cell death
- decrease in mitochondrial proteins ([1]; mouse myotube C2C12 cells, 100 μM, 24 hrs): marked decrease in mitochondrial proteins
- levels of the mitochondrial voltage dependent anion channel (VDAC) ([1]; mouse skeletal muscle myotubes, FIG. 12): unchanging levels
- loss of proteins involved in mitochondrial oxidative phosphorylation (OXPHOS) ([1]; mouse skeletal muscle myotubes, dose-dependent and time-dependent, FIG. 12): induces loss of proteins involved in mitochondrial oxidative phosphorylation (OXPHOS)

B1: bone morphogenetic protein 4 (protein, UniProt P12644 293-408, looked up)
Bone morphogenetic protein 4: SPKHHSQRARKKNKNCRRHSLYVDFSDVGWNDWIVAPPGYQAFYCHGDCPFPLADHLNSTNHAIVQTLVNSVNSSIPKACCVPTELSAISMLYLDEYDKVVLKNYQEMVVEGCGCR
- ratio of change between control and treatment cell lines, peptide FCADHPFLFFIR (SEQ ID NO:3) from protein SERPINB8 ([2]; one QM scan, P=0.067): 5.86
- ratio of change between control and treatment cell lines, peptide FCADHPFLFFIR (SEQ ID NO:3) from protein SERPINB8 ([2]; three quantitation scans summed, P=0.012): 5.43
- ratio of change between control and treatment cell lines, peptide FCADHPFLFFIR (SEQ ID NO:3) from protein SERPINB8 ([2]; two quantitation scans summed, P=0.014): 5.22
